From PubChem BioAssay AID1745844 (Carcinogenic Potency Database (CPDB), 2022)

System: rodent lifetime carcinogenesis bioassay, tumor incidence TD50
Assay: chronic cancer bioassays in animals – CPDB, compiled studies (AID 1745844)
Details: in drinking water

## Nc1ccc(Cc2ccc(N)cc2)cc1
mouse, strain B6C3F1, females, site: all sites + liver + thyroid gland, lesion: malignant lymphoma, histiocytic type + malignant lymphoma, mixed type + malignant lymphoma, undifferentiated type + malignant, dosed 103 weeks, study length 104 weeks
  TD50: 32.6 mg/kg/day
mouse, strain B6C3F1, females, site: all sites, lesion: malignant lymphoma, histiocytic type + malignant lymphoma, mixed type + malignant lymphoma, undifferentiated type + malignant, dosed 103 weeks, study length 104 weeks
  TD50: 64.7 mg/kg/day
mouse, strain B6C3F1, females, site: any site (literature study), lesion: several types, types named in the paper, dosed 103 weeks, study length 104 weeks
  TD50: 52.1 mg/kg/day
mouse, strain B6C3F1, females, site: liver, lesion: hepatocellular adenoma + hepatocellular carcinoma + neoplastic nodule, dosed 103 weeks, study length 104 weeks
  TD50: 59.3 mg/kg/day
mouse, strain B6C3F1, females, site: liver, lesion: hepatocellular adenoma + hepatocellular carcinoma, dosed 103 weeks, study length 104 weeks
  TD50: 59.3 mg/kg/day
mouse, strain B6C3F1, females, site: liver, lesion: hepatocellular adenoma, dosed 103 weeks, study length 104 weeks
  TD50: 135 mg/kg/day
mouse, strain B6C3F1, females, site: liver, lesion: hepatocellular carcinoma, dosed 103 weeks, study length 104 weeks
  TD50: 137 mg/kg/day
mouse, strain B6C3F1, females, site: lung, lesion: alveolar/bronchiolar adenoma + alveolar/bronchiolar carcinoma, dosed 103 weeks, study length 104 weeks
  TD50: 268 mg/kg/day
mouse, strain B6C3F1, females, site: lung, lesion: alveolar/bronchiolar adenoma, dosed 103 weeks, study length 104 weeks
  TD50: 327 mg/kg/day
mouse, strain B6C3F1, females, site: thyroid gland, lesion: follicular-cell adenoma + follicular-cell carcinoma, dosed 103 weeks, study length 104 weeks
  TD50: 128 mg/kg/day
mouse, strain B6C3F1, females, site: thyroid gland, lesion: follicular-cell adenoma, dosed 103 weeks, study length 104 weeks
  TD50: 150 mg/kg/day
mouse, strain B6C3F1, males, site: adrenal gland + liver + thyroid gland, lesion: pheochromocytoma + hepatocellular carcinoma + follicular-cell adenoma, dosed 103 weeks, study length 104 weeks
  TD50: 28.7 mg/kg/day
mouse, strain B6C3F1, males, site: adrenal gland, lesion: pheochromocytoma, dosed 103 weeks, study length 104 weeks
  TD50: 70 mg/kg/day
mouse, strain B6C3F1, males, site: any site (literature study), lesion: several types, types named in the paper, dosed 103 weeks, study length 104 weeks
  TD50: 47.4 mg/kg/day
mouse, strain B6C3F1, males, site: liver, lesion: hepatocellular adenoma + hepatocellular carcinoma + neoplastic nodule, dosed 103 weeks, study length 104 weeks
  TD50: 17 mg/kg/day
mouse, strain B6C3F1, males, site: liver, lesion: hepatocellular adenoma + hepatocellular carcinoma, dosed 103 weeks, study length 104 weeks
  TD50: 17 mg/kg/day
mouse, strain B6C3F1, males, site: liver, lesion: hepatocellular carcinoma, dosed 103 weeks, study length 104 weeks
  TD50: 22.3 mg/kg/day
mouse, strain B6C3F1, males, site: thyroid gland, lesion: follicular-cell adenoma, dosed 103 weeks, study length 104 weeks
  TD50: 88.4 mg/kg/day
rat, strain Fischer 344, females, site: any site (literature study), lesion: several types, types named in the paper, dosed 103 weeks, study length 105 weeks
  TD50: 277 mg/kg/day
rat, strain Fischer 344, females, site: liver, lesion: hepatocellular adenoma + hepatocellular carcinoma + neoplastic nodule, dosed 103 weeks, study length 105 weeks
  TD50: 118 mg/kg/day
rat, strain Fischer 344, females, site: thyroid gland, lesion: c-cell adenoma + c-cell carcinoma, dosed 103 weeks, study length 105 weeks
  TD50: 70 mg/kg/day
rat, strain Fischer 344, females, site: thyroid gland, lesion: c-cell adenoma + follicular-cell adenoma, dosed 103 weeks, study length 105 weeks
  TD50: 22 mg/kg/day
rat, strain Fischer 344, females, site: thyroid gland, lesion: c-cell adenoma, dosed 103 weeks, study length 105 weeks
  TD50: 73.7 mg/kg/day
rat, strain Fischer 344, females, site: thyroid gland, lesion: follicular-cell adenoma + follicular-cell carcinoma, dosed 103 weeks, study length 105 weeks
  TD50: 27.2 mg/kg/day
rat, strain Fischer 344, females, site: thyroid gland, lesion: follicular-cell adenoma, dosed 103 weeks, study length 105 weeks
  TD50: 33.5 mg/kg/day
rat, strain Fischer 344, males, site: liver + thyroid gland, lesion: neoplastic nodule + follicular-cell carcinoma, dosed 103 weeks, study length 105 weeks
  TD50: 12.5 mg/kg/day
rat, strain Fischer 344, males, site: liver, lesion: hepatocellular adenoma + hepatocellular carcinoma + neoplastic nodule, dosed 103 weeks, study length 105 weeks
  TD50: 14.1 mg/kg/day
rat, strain Fischer 344, males, site: liver, lesion: neoplastic nodule, dosed 103 weeks, study length 105 weeks
  TD50: 14.3 mg/kg/day
rat, strain Fischer 344, males, site: thyroid gland, lesion: follicular-cell adenoma + follicular-cell carcinoma, dosed 103 weeks, study length 105 weeks
  TD50: 49.5 mg/kg/day
rat, strain Fischer 344, males, site: thyroid gland, lesion: follicular-cell carcinoma, dosed 103 weeks, study length 105 weeks
  TD50: 85.4 mg/kg/day

## O=NN1CCOCC1
hamster, strain Syrian Golden, females, site: any site (literature study), lesion: several types, types named in the paper, dosed 104 weeks, study length 104 weeks
  TD50: 1.48 mg/kg/day
hamster, strain Syrian Golden, females, site: larynx, lesion: several types, types named in the paper, dosed 104 weeks, study length 104 weeks
  TD50: 15.4 mg/kg/day
hamster, strain Syrian Golden, females, site: liver, lesion: several types, types named in the paper, dosed 104 weeks, study length 104 weeks
  TD50: 51.6 mg/kg/day
hamster, strain Syrian Golden, females, site: respiratory system, lesion: several types, types named in the paper, dosed 104 weeks, study length 104 weeks
  TD50: 1.35 mg/kg/day
hamster, strain Syrian Golden, females, site: trachea, lesion: mixed-cell mucoepidermoid papilloma, dosed 104 weeks, study length 104 weeks
  TD50: 11.3 mg/kg/day
hamster, strain Syrian Golden, males, site: any site (literature study), lesion: several types, types named in the paper, dosed 104 weeks, study length 104 weeks
  TD50: 5.56 mg/kg/day
hamster, strain Syrian Golden, males, site: larynx, lesion: several types, types named in the paper, dosed 104 weeks, study length 104 weeks
  TD50: 11.5 mg/kg/day
hamster, strain Syrian Golden, males, site: liver, lesion: several types, types named in the paper, dosed 104 weeks, study length 104 weeks
  TD50: 9.14 mg/kg/day
hamster, strain Syrian Golden, males, site: respiratory system, lesion: several types, types named in the paper, dosed 104 weeks, study length 104 weeks
  TD50: 5.98 mg/kg/day
hamster, strain Syrian Golden, males, site: trachea, lesion: mixed-cell mucoepidermoid papilloma, dosed 104 weeks, study length 104 weeks
  TD50: 7.98 mg/kg/day
rat, strain Fischer 344, females, site: adrenal medulla, lesion: pheochromocytoma, dosed 45 weeks, study length 126 weeks
  TD50: 0.325 mg/kg/day
rat, strain Fischer 344, females, site: adrenal medulla, lesion: pheochromocytoma, dosed 100 weeks, study length 126 weeks
  TD50: 1.07 mg/kg/day
rat, strain Fischer 344, females, site: esophagus, lesion: several types, types named in the paper, dosed 45 weeks, study length 126 weeks
  TD50: 1.97 mg/kg/day
rat, strain Fischer 344, females, site: esophagus, lesion: squamous-cell papilloma, dosed 45 weeks, study length 126 weeks
  TD50: 2.53 mg/kg/day
rat, strain Fischer 344, females, site: liver, lesion: hemangiosarcoma, dosed 45 weeks, study length 126 weeks
  TD50: 0.666 mg/kg/day
rat, strain Fischer 344, females, site: liver, lesion: hemangiosarcoma, dosed 50 weeks, study length 73 weeks
  TD50: 0.348 mg/kg/day
rat, strain Fischer 344, females, site: liver, lesion: hemangiosarcoma, dosed 100 weeks, study length 126 weeks
  TD50: 0.63 mg/kg/day
rat, strain Fischer 344, females, site: liver, lesion: hepatocellular carcinoma, dosed 45 weeks, study length 126 weeks
  TD50: 0.564 mg/kg/day
rat, strain Fischer 344, females, site: liver, lesion: hepatocellular carcinoma, dosed 50 weeks, study length 73 weeks
  TD50: 0.0805 mg/kg/day
rat, strain Fischer 344, females, site: liver, lesion: hepatocellular carcinoma, dosed 100 weeks, study length 126 weeks
  TD50: 0.431 mg/kg/day
rat, strain Fischer 344, females, site: liver, lesion: neoplastic nodule, dosed 45 weeks, study length 126 weeks
  TD50: 1.28 mg/kg/day
rat, strain Fischer 344, females, site: liver, lesion: neoplastic nodule, dosed 100 weeks, study length 126 weeks
  TD50: 0.239 mg/kg/day
rat, strain Fischer 344, females, site: liver, lesion: several types, types named in the paper, dosed 45 weeks, study length 126 weeks
  TD50: 0.14 mg/kg/day
rat, strain Fischer 344, females, site: liver, lesion: several types, types named in the paper, dosed 50 weeks, study length 73 weeks
  carcinogen call: positive
rat, strain Fischer 344, females, site: liver, lesion: several types, types named in the paper, dosed 100 weeks, study length 126 weeks
  TD50: 0.127 mg/kg/day
rat, strain Fischer 344, females, site: thyroid gland, lesion: c-cell carcinoma, dosed 45 weeks, study length 126 weeks
  TD50: 0.363 mg/kg/day
rat, strain Fischer 344, females, site: thyroid gland, lesion: follicular-cell adenoma, dosed 100 weeks, study length 126 weeks
  TD50: 0.581 mg/kg/day
rat, strain Fischer 344, females, site: tongue, lesion: several types, types named in the paper, dosed 45 weeks, study length 126 weeks
  TD50: 6.54 mg/kg/day
rat, strain Fischer 344, females, site: tongue, lesion: squamous-cell papilloma, dosed 45 weeks, study length 126 weeks
  TD50: 50.2 mg/kg/day
rat, strain Fischer 344, females, site: tongue, lesion: squamous-cell papilloma, dosed 100 weeks, study length 126 weeks
  TD50: 3.49 mg/kg/day
